Measurements as given in article PMC10507085, “Pharmacological inhibition of TBK1/IKKε blunts immunopathology in a murine model of SARS-CoV-2 infection” (Nature Communications, 2023).

Columns and labels:
Test in all cases: biochemical
Design in all cases: KINOMEscan competition binding, DNA-tagged kinase against immobilised ligand, qPCR read-out
Details in all cases: read-out: Percent Control
ADRBK2 = target: T1, ADRBK2 (Homo sapiens, UniProt P35626)
T1 construct: gene GRK3

ANKK1 = ANKK1 (Homo sapiens, UniProt Q8NFD2)
CAMK1G = CAMK1G (Homo sapiens, UniProt Q96NX5)
CAMK2A = CAMK2A (Homo sapiens, UniProt Q9UQM7)
CAMK2B = CAMK2B (Homo sapiens, UniProt Q13554)
CDK9 = CDK9 (Homo sapiens, UniProt P50750)
CLK3 = CLK3 (Homo sapiens, UniProt P49761)
EPHB1 = EPHB1 (Homo sapiens, UniProt P54762)
FLT1 = FLT1 (Homo sapiens, UniProt P17948)
FLT3 = FLT3 (Homo sapiens, UniProt P36888)
LRRK2 = LRRK2 (Homo sapiens, UniProt Q5S007)
MAP2K5 = MAP2K5 (Homo sapiens, UniProt Q13163)
MAP3K4 = MAP3K4 (Homo sapiens, UniProt Q9Y6R4)
MAPK1 = MAPK1 (Homo sapiens, UniProt P28482)
MAPK9 = MAPK9 (Homo sapiens, UniProt P45984)
MTOR = MTOR (Homo sapiens, UniProt P42345)
PHKG1 = PHKG1 (Homo sapiens, UniProt Q16816)
PKN1 = PKN1 (Homo sapiens, UniProt Q16512)
TAOK2 = TAOK2 (Homo sapiens, UniProt Q9UL54)
ULK3 = ULK3 (Homo sapiens, UniProt Q6PHR2)

MAP2K5, sequence (Q13163 whole entry): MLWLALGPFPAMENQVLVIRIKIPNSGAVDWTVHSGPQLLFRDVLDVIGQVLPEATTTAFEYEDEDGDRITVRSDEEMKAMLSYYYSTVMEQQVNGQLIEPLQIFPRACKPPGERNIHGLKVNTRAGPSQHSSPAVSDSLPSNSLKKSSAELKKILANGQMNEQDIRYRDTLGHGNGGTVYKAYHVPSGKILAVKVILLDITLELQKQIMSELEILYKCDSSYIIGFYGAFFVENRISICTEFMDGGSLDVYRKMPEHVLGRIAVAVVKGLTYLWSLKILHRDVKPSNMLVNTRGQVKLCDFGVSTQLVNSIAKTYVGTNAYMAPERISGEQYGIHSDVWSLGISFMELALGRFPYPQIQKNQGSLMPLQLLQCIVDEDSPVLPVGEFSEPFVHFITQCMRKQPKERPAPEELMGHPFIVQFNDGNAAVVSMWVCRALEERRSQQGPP
MAPK1, sequence (P28482 whole entry): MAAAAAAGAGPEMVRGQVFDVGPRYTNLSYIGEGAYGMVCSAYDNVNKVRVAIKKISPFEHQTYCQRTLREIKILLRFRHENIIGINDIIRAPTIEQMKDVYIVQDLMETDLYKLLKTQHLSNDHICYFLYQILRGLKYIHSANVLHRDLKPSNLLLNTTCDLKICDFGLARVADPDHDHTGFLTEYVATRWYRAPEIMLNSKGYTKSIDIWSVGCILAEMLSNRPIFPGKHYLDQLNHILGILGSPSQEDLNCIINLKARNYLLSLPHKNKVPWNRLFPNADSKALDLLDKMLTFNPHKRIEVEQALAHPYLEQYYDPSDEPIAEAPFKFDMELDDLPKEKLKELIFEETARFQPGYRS
ANKK1, sequence (Q8NFD2 whole entry): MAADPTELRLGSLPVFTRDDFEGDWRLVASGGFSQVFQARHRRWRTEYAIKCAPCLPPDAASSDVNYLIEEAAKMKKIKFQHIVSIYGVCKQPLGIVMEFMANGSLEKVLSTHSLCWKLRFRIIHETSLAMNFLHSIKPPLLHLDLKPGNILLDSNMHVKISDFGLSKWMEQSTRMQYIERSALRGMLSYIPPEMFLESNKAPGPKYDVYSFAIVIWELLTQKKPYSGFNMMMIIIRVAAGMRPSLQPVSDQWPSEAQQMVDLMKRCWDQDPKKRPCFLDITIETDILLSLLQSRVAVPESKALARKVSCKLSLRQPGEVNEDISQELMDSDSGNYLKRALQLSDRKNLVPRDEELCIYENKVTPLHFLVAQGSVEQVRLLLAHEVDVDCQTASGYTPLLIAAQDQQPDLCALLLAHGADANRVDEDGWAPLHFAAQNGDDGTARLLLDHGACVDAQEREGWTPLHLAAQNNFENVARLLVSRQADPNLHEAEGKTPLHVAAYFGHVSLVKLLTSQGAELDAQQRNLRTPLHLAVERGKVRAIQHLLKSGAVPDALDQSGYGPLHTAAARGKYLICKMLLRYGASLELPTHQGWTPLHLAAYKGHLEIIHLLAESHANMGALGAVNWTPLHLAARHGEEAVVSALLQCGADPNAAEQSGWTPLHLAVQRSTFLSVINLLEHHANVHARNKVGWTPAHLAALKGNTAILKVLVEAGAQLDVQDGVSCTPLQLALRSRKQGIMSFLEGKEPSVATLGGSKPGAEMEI
FLT1, sequence (P17948 whole entry): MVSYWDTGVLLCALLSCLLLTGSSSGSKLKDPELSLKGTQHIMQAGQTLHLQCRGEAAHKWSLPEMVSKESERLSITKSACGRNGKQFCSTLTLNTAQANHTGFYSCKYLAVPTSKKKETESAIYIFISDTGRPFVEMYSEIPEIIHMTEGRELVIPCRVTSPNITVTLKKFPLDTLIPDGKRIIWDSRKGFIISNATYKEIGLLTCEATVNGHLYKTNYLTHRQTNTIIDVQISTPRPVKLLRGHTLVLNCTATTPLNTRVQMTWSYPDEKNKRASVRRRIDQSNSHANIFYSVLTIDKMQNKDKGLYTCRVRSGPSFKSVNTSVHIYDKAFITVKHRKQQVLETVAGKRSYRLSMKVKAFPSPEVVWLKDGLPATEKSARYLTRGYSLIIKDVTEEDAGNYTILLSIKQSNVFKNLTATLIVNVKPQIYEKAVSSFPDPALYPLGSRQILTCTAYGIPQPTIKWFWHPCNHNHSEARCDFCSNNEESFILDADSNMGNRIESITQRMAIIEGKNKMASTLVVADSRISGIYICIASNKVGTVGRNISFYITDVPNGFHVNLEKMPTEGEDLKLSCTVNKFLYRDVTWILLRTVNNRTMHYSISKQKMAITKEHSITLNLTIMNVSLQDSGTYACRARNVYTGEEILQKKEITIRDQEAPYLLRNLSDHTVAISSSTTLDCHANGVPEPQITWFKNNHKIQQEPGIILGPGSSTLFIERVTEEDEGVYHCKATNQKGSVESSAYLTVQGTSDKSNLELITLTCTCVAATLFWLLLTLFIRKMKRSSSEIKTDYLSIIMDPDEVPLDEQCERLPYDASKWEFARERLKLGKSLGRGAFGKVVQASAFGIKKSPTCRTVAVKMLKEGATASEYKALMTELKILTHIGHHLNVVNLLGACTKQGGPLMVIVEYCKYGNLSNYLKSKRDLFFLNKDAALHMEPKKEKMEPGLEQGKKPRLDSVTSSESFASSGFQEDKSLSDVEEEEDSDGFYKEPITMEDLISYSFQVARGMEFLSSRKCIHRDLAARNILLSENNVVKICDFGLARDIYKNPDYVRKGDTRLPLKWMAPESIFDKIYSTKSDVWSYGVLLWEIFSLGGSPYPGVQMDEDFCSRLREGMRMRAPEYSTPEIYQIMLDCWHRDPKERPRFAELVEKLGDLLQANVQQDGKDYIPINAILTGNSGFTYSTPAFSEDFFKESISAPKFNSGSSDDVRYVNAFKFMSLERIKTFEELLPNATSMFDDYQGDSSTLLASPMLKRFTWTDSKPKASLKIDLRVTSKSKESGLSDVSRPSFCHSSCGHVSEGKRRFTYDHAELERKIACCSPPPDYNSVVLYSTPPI
FLT3, sequence (P36888 whole entry): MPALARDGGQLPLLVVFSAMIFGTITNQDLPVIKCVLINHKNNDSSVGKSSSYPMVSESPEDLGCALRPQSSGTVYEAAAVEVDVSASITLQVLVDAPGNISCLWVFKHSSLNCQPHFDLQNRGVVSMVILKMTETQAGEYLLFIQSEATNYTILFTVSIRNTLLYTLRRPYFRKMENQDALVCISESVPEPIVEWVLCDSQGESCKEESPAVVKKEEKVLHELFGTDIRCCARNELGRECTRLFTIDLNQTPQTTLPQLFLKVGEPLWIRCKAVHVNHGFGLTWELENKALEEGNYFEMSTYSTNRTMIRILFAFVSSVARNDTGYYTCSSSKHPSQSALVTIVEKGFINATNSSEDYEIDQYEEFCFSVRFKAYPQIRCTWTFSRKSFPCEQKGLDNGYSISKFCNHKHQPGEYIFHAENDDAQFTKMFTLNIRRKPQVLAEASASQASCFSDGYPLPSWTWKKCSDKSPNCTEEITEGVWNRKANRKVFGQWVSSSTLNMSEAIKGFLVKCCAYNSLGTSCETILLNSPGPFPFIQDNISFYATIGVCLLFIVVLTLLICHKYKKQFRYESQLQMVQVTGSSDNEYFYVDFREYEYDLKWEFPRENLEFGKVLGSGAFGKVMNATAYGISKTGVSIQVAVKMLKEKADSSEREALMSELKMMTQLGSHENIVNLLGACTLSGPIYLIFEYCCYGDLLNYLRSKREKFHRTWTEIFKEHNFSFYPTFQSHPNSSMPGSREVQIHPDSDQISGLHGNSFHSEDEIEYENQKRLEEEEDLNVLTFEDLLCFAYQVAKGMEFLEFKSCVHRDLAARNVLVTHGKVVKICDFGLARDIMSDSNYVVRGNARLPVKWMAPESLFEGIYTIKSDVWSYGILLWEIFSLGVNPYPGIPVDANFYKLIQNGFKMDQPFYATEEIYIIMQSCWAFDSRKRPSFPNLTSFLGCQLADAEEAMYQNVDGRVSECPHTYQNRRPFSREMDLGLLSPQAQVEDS
CLK3, sequence (P49761 whole entry): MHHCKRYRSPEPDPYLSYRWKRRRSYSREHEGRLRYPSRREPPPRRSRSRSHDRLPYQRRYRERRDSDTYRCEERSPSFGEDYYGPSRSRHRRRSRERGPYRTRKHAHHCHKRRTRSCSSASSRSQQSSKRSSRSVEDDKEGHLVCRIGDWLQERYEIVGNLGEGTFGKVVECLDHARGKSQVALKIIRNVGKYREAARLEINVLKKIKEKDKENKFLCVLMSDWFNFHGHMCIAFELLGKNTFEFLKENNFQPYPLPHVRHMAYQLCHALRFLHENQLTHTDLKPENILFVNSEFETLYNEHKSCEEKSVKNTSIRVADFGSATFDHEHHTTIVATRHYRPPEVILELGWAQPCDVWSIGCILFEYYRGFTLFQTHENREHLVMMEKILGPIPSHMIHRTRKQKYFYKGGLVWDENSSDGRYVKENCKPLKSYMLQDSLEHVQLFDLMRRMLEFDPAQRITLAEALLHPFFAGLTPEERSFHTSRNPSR
PHKG1, sequence (Q16816 whole entry): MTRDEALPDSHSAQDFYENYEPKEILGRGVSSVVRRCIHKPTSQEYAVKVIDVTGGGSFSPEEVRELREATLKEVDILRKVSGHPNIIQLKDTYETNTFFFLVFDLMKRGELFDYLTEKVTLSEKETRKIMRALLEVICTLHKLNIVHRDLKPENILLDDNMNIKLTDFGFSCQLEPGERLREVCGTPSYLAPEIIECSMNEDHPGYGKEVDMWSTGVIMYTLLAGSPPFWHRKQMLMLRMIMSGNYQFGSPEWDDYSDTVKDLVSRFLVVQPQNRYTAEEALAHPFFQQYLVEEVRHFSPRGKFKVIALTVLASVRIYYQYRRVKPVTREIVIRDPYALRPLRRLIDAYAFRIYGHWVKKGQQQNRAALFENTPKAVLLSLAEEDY

With `Oc1ccc(C2=Cc3ccc(O)cc3OC2)cc1` [compound 1, idronoxil] the remaining binding at 10 µM (ADRBK2) was 85%, the remaining binding at 10 µM (ANKK1) was 66% and the remaining binding at 10 µM (CAMK1G) was 80%. For the same molecule, the remaining binding at 10 µM (CAMK2A) was 87%, the remaining binding at 10 µM (CAMK2B) was 83% and the remaining binding at 10 µM (CDK9) was 91%. It also gave a remaining binding at 10 µM (CLK3) of 70%, a remaining binding at 10 µM (EPHB1) of 84% and a remaining binding at 10 µM (FLT1) of 100%. The remaining binding at 10 µM (FLT3) was 80%, the remaining binding at 10 µM (LRRK2) was 90% and the remaining binding at 10 µM (MAP2K5) was 62%. It also gave a remaining binding at 10 µM (MAP3K4) of 76%, a remaining binding at 10 µM (MAPK1) of 100% and a remaining binding at 10 µM (MAPK9) of 93%. It also gave a remaining binding at 10 µM (MTOR) of 73%, a remaining binding at 10 µM (PHKG1) of 57% and a remaining binding at 10 µM (PKN1) of 66%. The remaining binding at 10 µM (TAOK2) was 90% and the remaining binding at 10 µM (ULK3) was 78%.
